Assay results as given in patent publication US20210220450A1, “TREATMENT OF AN IOP CONDITION” (The Research Foundation for The State University of New York, priority 2013, published 2021).

How the values were obtained:
Mmp-9KO mice = assay: Outflow facility in protein treated Mmp-9KO mouse eyes (Example 16); assay type: in vivo; conditions: intravitreal protein, p>0.05
Description: PlatKO and Mmp-9KO mice were also not given steroids prior to protein injections (FIG. 10c). Within each cohort, animals were divided into two groups:
1) Animals that received unilateral intravitreal injection with 2 μl of tPA (5 μg/μl, Actilyse; Boehringer Ingelheim, Ingelheim am Rhein, Germany) while the contralateral eye received 2 μl of BSA (5 μg/μl; Gold Biotechnology, St Louis, Mo., USA), and 2) Animals that received unilateral intravitreal injections with 2 μl of non-enzymatically active tPA (NE-tPA/S478A-tPA) (5 μg/μl; Innovative Research, Novi, Mich., USA) while the contralateral eye received 2 μl of BSA. Animals were euthanized two days after intravitreal injection.
Outflow facility determination: Mouse eyes were enucleated immediately after euthanasia. Outflow facility was determined using a constant pressure method, as previously described. Pressure was raised in steps of 4 cmH2O, from 8 cmH2O (5.88 mmHg) to 32 cmH2O (23.54 mmHg) by increasing the height of a column of fluid of BSS. Steady state was initially achieved after 10 minutes. […] Flow was constantly measured via a microfluidic flow sensor (0.07-1.5 uL/min, MFS1; Elveflow, Paris, France). […] Any eyes that developed visible leaks during outflow facility determination, or that had pressure-flow correlations with R^2<0.9, were excluded from analysis but were used for RNA quantification.

[1] = system: MMP-1, MMP-2, MMP-9, MMP-13, PLAT, PAI-1 mRNA; assay: qRT-PCR gene expression in sheep TM and ciliary processes after tPA (Examples 6, 7); assay type: in vivo
Source text: Methods. Tissue Collection and Isolation of RNA. After animals were euthanized, eyes were immediately enucleated. Eyes were then opened anterior to the equator using a razor blade. The lens was removed from the anterior part, and the tissue was immersed in RNA stabilizing agent (RNAlater; Ambion, Carlsbad, Calif.) and placed […] for transportation to the United States. Upon arrival in the United States, TM and ciliary processes (CP) were dissected on ice in the presence of RNA stabilizing agent as described previously. Dissected tissue was homogenized, and total RNA was extracted using TRIzol reagent (Gibco, Carlsbad, Calif.). Briefly, the tissue was homogenized in TRIzol, and chloroform was added to separate proteins from RNA. After centrifugation, the RNA-containing supernatant was aspirated. The RNA was precipitated with isopropanol, washed with 75% ethanol, treated with DNase, and column purified using a commercial kit (RNAeasy Mini Kit; Qiagen, Valencia, Calif.) in accordance with the manufacturer's instructions. RNA concentrations were determined with a spectrophotometer (Nanodrop; Thermo Scientific, Wilmington, Del.) and the 260:280-nm absorbance ratio was calculated to determine RNA purity.
Quantitative Real-Time PCR (qRT-PCR) The RNA samples were reverse transcribed with random hexamers to cDNA using a reverse transcription kit (Quantitect; Qiagen) in accordance with the manufacturer's instructions. Quantitative RT-PCR was performed using a commercial kit (SYBR Green RT-PCR Reagents Kit; Applied Biosystems, Carlsbad, Calif.) in an ABI PRISM 7900HT sequence detector (Applied Biosystems). […] Plasminogen activator inhibitor 1 (PAI-1) mRNA expression was measured in both TM and ciliary processes tissues. Relative quantification of gene expression was performed using the standard curve method. […] The DCt was calculated as the difference in Ct values derived from the target gene and the 18S gene. The DDCt was calculated as DCt of the normalized assayed genes in the treated samples minus DCt of normalized assayed genes in the naïve control samples. […]

## tissue plasminogen activator [tPA]
Mmp-9KO mice
  effect on outflow facility: did not increase
[1]; sheep TM (FIG. 7)
  PLAT expression: down-regulates
  expression of MMP1 and MMP9: up-regulates
[1]; sheep trabecular meshwork and ciliary processes
  expression of MMP1, MMP2, MMP9, MMP13 and PAI-1: up-regulates
